Data taken from ChEMBL document CHEMBL1140268, “Novel and potent cyclic cyanamide-based cathepsin K inhibitors” (Bioorg Med Chem Lett, 2005).

Key:
[1] = molecular target: T1, Cathepsin K (Homo sapiens, UniProt P43235); assay: Inhibitory concentration against human cathepsin K using 10 uM Cbz-Phe-Arg-AMC
T1 sequence (P43235 whole entry): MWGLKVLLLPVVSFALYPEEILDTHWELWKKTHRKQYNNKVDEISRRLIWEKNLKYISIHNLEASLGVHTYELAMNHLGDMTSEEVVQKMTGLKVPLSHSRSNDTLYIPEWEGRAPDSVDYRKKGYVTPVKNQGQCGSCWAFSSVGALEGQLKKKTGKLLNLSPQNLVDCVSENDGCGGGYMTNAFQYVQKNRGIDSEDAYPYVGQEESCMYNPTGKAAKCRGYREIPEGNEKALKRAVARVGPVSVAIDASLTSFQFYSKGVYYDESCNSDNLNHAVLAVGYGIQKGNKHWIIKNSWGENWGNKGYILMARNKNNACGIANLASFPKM

[2] = molecular target: Cathepsin B (Homo sapiens, UniProt P07858); assay: Inhibitory concentration against human cathepsin B using 10 uM Cbz-Phe-Arg-AMC
[3] = molecular target: Procathepsin L (Homo sapiens, UniProt P07711); assay: Inhibitory concentration against human cathepsin L using 5 uM Cbz-Phe-Arg-AMC
Sequence of Procathepsin L (P07711 whole entry): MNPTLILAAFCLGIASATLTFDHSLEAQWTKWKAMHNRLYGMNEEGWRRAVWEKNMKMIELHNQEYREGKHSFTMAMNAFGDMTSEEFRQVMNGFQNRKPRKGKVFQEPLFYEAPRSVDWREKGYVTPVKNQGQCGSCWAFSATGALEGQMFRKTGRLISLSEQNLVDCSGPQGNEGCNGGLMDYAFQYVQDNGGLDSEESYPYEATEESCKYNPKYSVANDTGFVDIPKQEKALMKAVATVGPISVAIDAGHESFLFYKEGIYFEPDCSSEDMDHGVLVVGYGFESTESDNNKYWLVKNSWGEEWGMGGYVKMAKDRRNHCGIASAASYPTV

[4] = molecular target: T2, Pro-cathepsin H (Homo sapiens, UniProt P09668); assay: Inhibitory concentration against human cathepsin H using 50 uM L-Arg-beta-naphthalamide
T2 sequence (P09668 whole entry): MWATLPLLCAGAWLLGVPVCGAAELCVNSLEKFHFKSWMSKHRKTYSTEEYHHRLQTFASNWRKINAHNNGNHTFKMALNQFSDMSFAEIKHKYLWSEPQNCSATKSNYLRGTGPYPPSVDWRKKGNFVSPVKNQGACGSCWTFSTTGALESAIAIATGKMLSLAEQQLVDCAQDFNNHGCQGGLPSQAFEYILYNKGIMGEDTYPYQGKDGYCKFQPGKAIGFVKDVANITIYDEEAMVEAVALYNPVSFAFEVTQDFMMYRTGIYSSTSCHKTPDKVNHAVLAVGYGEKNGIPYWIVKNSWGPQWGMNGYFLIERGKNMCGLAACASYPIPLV

Row | IC50 [1] [nM] | IC50 [2] [nM] | IC50 [3] [nM] | IC50 [4] [nM] | Structure (SMILES)
1 | 1.8 | 310 | 130 | 580 | C[C@@H](CC1CCCCC1)OC(=O)C1CCCN1C#N (stereo not given in full)
2 | 8100 |  |  |  | CC(C)(C)NC(=O)[C@H]1CCCN1C#N
3 | 200 |  |  |  | CC[C@@H](CC1CCCCC1)OC(=O)N1CCC(NC#N)C1 (stereo not given in full)
4 | 300 |  |  |  | CC(C)(C)OC(=O)[C@H]1CCCN1C#N
5 | 430 |  |  |  | COC(=O)[C@@H]1CN(C#N)C[C@H]1c1ccc(OC)c(OC2CCCC2)c1
6 | 12 | 680 | 81 | 8300 | C[C@@H](CC1CCCCC1)OC(=O)N[C@H]1CCN(C#N)C1
7 | 60 |  |  |  | CC(C)(C)OC(=O)[C@@H]1CCCN1C#N
8 | 0.048 | 2.4 | 0.71 | 40 | C[C@@H](CC1CCCCC1)OC(=O)C1CCN1C#N (stereo not given in full)
9 | 200 |  |  |  | CC(C)(C)OC(=O)N[C@@H]1CCN(C#N)C1
10 | 81 |  |  |  | CC(C)(C)OC(=O)N[C@H]1CCN(C#N)C1
11 | 380 |  |  |  | CC(C)(C)OC(=O)N1CCCN1C#N
12 | 51 |  |  |  | CCCC[C@H](C=O)NC(=O)OC(C)(C)C
13 | 8.9 |  |  |  | CC[C@@H](CC1CCCCC1)OC(=O)NC1CCN(C#N)C1 (stereo not given in full)
14 | > 13000 |  |  |  | CN(C(=O)[C@H]1CCCN1C#N)C(C)(C)C
15 | > 13000 |  |  |  | CC(C)(C)OC(=O)[C@@H]1CCCCN1C#N

Row | Structure (SMILES) | IC50 [1] [nM] | IC50 [2] [nM] | IC50 [3] [nM] | IC50 [4] [nM]
16 | N#CN1CCCC1 [CYANO-PYRROLIDINE] | 2100 |  |  | 
